Results: patent publication US10689702B2, “Biomarkers for diabetes” (The Chinese University of Hong Kong, priority 2012, dated 2020)

System: cancer in type 2 diabetic patients
Assay: Hazard ratios of drug use for cancer, 5-year prospective cohort (Hong Kong Diabetes Registry)
Assay type: in vivo, Chinese type 2 diabetic patients
Conditions: patients who did not use the drug 2.5 yr prior to enrolment
[1] = Model 1, adjusted for propensity scores
[2] = Model 2, adjusted for risk factors, use of other medications during follow-up and propensity score

Compound: CN(C)C(=N)N=C(N)N [Metformin]
- HR(95% CI) for cancer, users versus non user [1]: 0.38(0.25-0.56)
- HR(95% CI) for cancer, users versus non user [2]: 0.39(0.25-0.61)

Compound: O=C1CSC(=O)N1 [TZDs, Thiazolidinedione]
- HR(95% CI) for cancer, users versus non user [1]: 0.12(0.03-0.50)
- HR(95% CI) for cancer, users versus non user [2]: 0.18(0.04-0.72)

Compound: Insulin
- HR(95% CI) for cancer, users versus non user [1]: 0.48(0.31-0.73)
- HR(95% CI) for cancer, users versus non user [2]: 0.58(0.38-0.89)
